Source: patent US11186640B2, “Method for the identification of immunotherapy-drug combinations using a network approach” (THE UNIVERSITY OF WESTERN AUSTRALIA, priority 2014, dated 2021)
Entries after “also recorded” stand apart in the source; their conditions may differ. Read-outs that look alike come from different tables or passages of the source.

Legend:
melanoma = melanoma patients after ipilimumab; cited from earlier work
AB1-HA mesothelioma [1] = assay: in vivo co-treatment with anti-CTLA-4 in AB1-HA tumour bearing mice; set-up: species or system BALB/c mice; settings: for anti-tumour response / response rate to anti-CTLA-4 on co-treatment: drug in combination with anti-CTLA-4
Line-1 lung cancer cells = assay: in vivo co-treatment with anti-CTLA4 in Line-1 lung cancer model; set-up: species or system BALB/c mice
AB1-HA mesothelioma [2] = assay: in vivo co-treatment with anti-GITR in AB1-HA tumour bearing mice; set-up: species or system BALB/c mice; settings: drug in combination with anti-GITR
[3] = system: Renca kidney cancer cells; assay type: in vivo, BALB/c mice
[4] = mouse, in vivo, ip, 400 mg/kg
[5] = mice, i.p. administration; cited from earlier work

## ipilimumab
melanoma
  7-year survival: 17%

## CN1CC[C@H](c2c(O)cc(O)c3c(=O)cc(-c4ccccc4Cl)oc23)[C@H](O)C1 [flavopiridol]
AB1-HA mesothelioma [1]
  anti-tumour response / response rate to anti-CTLA-4 on co-treatment: increased the response rate

## COc1c2c(cc3c1OCO3)CCN(C)C2 [hydrocotarnine]
AB1-HA mesothelioma [1]
  anti-tumour response / response rate to anti-CTLA-4 on co-treatment: increased anti-tumour response

## O=[N+]([O-])O[C@H]1CO[C@H]2[C@@H]1OC[C@H]2O[N+](=O)[O-] [ISDN, Isosorbide dinitrate]
Line-1 lung cancer cells; drug in combination with anti-CTLA4
  complete regression / clinical efficacy of CTLA4 blockade on co-treatment: improve the clinical efficacy; also recorded: complete regression in a substantial proportion of mice
Line-1 lung cancer cells; either treatment alone
  complete regression: not observed
AB1-HA mesothelioma [2]
  survival / efficacy of checkpoint blockade with anti-GITR on co-treatment: could equally be improved; also recorded: improved survival
AB1-HA mesothelioma [1]
  anti-tumour response / response rate to anti-CTLA-4 on co-treatment: increase the therapeutic efficacy; also recorded: increased the response rate
[3]; Renca kidney cancer, drug in combination with anti-CTLA4
  survival / clinical efficacy of CTLA4 blockade on co-treatment: improve the clinical efficacy; also recorded: improved survival

## Cc1cc2c(cc1S(N)(=O)=O)S(=O)(=O)CCC2 [meticrane]
[4]
  clinical signs: slightly ruffled
[5]
  LD50: 10000 mg/kg
AB1-HA mesothelioma [1]
  anti-tumour response / response rate to anti-CTLA-4 on co-treatment: clear effect; also recorded: increased anti-tumour response

## O=S(=O)(c1cccc2cnccc12)N1CCCNCC1 [Fasudil]
AB1-HA mesothelioma [1]; drug alone
  growth delay: did not result in any growth delay
AB1-HA mesothelioma [1]
  anti-tumour response / response rate to anti-CTLA-4 on co-treatment: increased the response rate

## Cc1cc(Nc2cc(N3CCN(C)CC3)nc(Sc3ccc(NC(=O)C4CC4)cc3)n2)n[nH]1 [VX-680]
AB1-HA mesothelioma [1]
  anti-tumour response / response rate to anti-CTLA-4 on co-treatment: significantly increased

## Cc1ncc(CO)c(CO)c1O [pyridoxine]
AB1-HA mesothelioma [1]
  anti-tumour response / response rate to anti-CTLA-4 on co-treatment: clear effect; also recorded: increased anti-tumour response

## CC1=C(/C=C/C(C)=C/C=C/C(C)=C/C(=O)O)C(C)(C)CCC1 [ATRA, All-trans Retinoic Acid]
AB1-HA mesothelioma [1]
  anti-tumour response / response rate to anti-CTLA-4 on co-treatment: clear effect; also recorded: increased anti-tumour response
[3]; mouse, in vivo
  survival / clinical efficacy of CTLA4 blockade on co-treatment: improve the clinical efficacy; also recorded: improved survival

## NC(=NCCC[C@H](N)C(=O)O)N[N+](=O)[O-] [L-NNA]
AB1-HA mesothelioma [1]
  anti-tumour response / response rate to anti-CTLA-4 on co-treatment: diminished; also recorded: abrogated the anti-tumour effect

## CCOC(=O)N1CCN(/[N+]([O-])=N/Oc2ccc([N+](=O)[O-])cc2[N+](=O)[O-])CC1 [JS-K]
AB1-HA mesothelioma [1]
  anti-tumour response / response rate to anti-CTLA-4 on co-treatment: improves the clinical benefit
